Residues, ends and D or L forms follow the SMILES beside them. *: point of attachment. Boc = CC(C)(C)OC(=O)*; OBn = c1ccc(CO*)cc1; βAla = NCCC(=O)O Bounds are passed on as bounds.

Drawing on a melting point compilation (Tetko et al.; mined from patent text by program, amines drawn as free bases though some values may be those of a salt), this text covers melting point for 88 molecules.

Broadly, the melting point is the temperature, or range, at which the solid turns liquid. Take `CCOC(=O)C=Cc1cc([N+](=O)[O-])ccc1Cl`: the melting point was 138 to 140 °C.

`CCOC(=O)C(CO)NC(=O)C(CC(=O)OCc1ccccc1)NC(=O)CCNC(=O)OC(C)(C)C` (stereo not drawn) ({Boc-βAla}-Asp(OBn)-Ser-OEt; configuration not given here): the melting point is 132 to 134 °C.

In the case of `CCOC(=O)c1cc(-n2c(=O)c3c(n(C)c2=O)CSC3)ccc1Cl`, the melting point lay within 203 to 206 °C.

`CCCCn1c(=O)c2c(nc(C)n2S(=O)(=O)CCCCl)n(CCCC)c1=O`: the melting point was 76 to 78 °C.

As for `Cc1c(O)cc(N2C(=O)c3ccccc3C2=O)cc1C(=O)O`, the melting point was above 250 °C.

Molecule `NC(=O)C1CCc2[nH]c3ccc(Cl)cc3c2C1` (stereo not drawn) returned a melting point of 247 to 248 °C.

Consider `COC(=O)C(=O)c1ccc(OCOc2ccccc2)cc1`, for which the melting point was 52 to 54 °C.

On to `CCOC(=O)c1cn(-c2ccc(F)cc2F)c2nc(N3CCC(NC(C)=O)C3)c(F)cc2c1=O` (stereo not drawn), for which the melting point was in the range of 233 to 236 °C.

Consider `N#CCc1cccc(Cn2ccc(OCc3ccc(F)cc3F)c(Br)c2=O)c1`, for which the melting point fell in the range of 120 to 121 °C.

Regarding `O=c1[nH]nc(-c2ccc(Cl)cc2)n1Cc1ccccc1`, the melting point lay in the range of 208 to 210 °C.

`COc1cc(N2CCC(N3CCCN(CCO)CC3)CC2)ccc1Nc1ncc2ccc(-c3ccccc3OC)n2n1` had a melting point of 72 to 80 °C.

For the molecule `CCOC(=O)Cc1nc(-c2ccc(F)cc2)oc1-c1ccco1`, the melting point was in the range of 110 to 111 °C.

`CC(C(=O)O)c1ccc(CCNC(=O)c2cccc3cccnc23)cc1` (stereo not drawn) had a melting point of 143 to 144 °C.

The molecule `COC(=O)c1ccc(Cc2c[nH]c3ccc([N+](=O)[O-])cc23)c(OC)c1` gave a melting point of 153 to 155 °C.

`CSC(=NS(=O)(=O)c1ccccc1)Nc1ccc(C#N)cc1` gave a melting point of 150 °C.

The molecule `c1cc2nc3c(n2nc1N1CCOCC1)CCCC3` displayed a melting point of 188 °C.

For `CCOc1cc(-c2cc(C(F)(F)F)n3ncc(-c4ccncc4)c3n2)ccc1C(F)(F)F`, the melting point amounted to 251 °C.

In the case of `CNC(=O)Nc1cccc(-c2noc(C(F)(F)F)n2)c1`, the melting point lay in the range of 141 to 143 °C.

Take `CCCc1c(OCCCCCCc2cc(O)c(O)c(C(C)C)c2)ccc(C(=O)O)c1O`: the melting point lay in the range of 138 to 140 °C.

Consider `N#Cc1cc(=O)n2nc(S(=O)(=O)Cc3ccccc3)sc2n1`, for which the melting point is 214 to 217 °C.

Regarding `O=c1c2c(Cc3ccc(OC(F)(F)F)cc3)n[nH]c2c2cccnc2n1-c1ccccc1`, the melting point was 216 to 218 °C.

As to `Cc1ccc2sc3cc(F)ccc3c(=O)c2c1`, the melting point lay in the range of 159 to 165 °C.

As for `Cc1cc(C(N)=O)ncc1C(c1c(F)ccc(F)c1F)S(=O)(=O)c1ccc(F)c(F)c1` (stereo not drawn), the melting point lay within 200 to 201 °C.

For the molecule `O=C1CCC(n2cnc(-c3ccc(F)cc3)c2-c2ccnc(O)n2)CC1`, the melting point was in the range of 236 to 238 °C.

For the molecule `CCN1CC(=O)C(C#N)=C1N`, the melting point lay within 278 to 280 °C.

Regarding `COc1cc(OC)nc(Oc2cccc(Oc3ccccc3)c2C(=O)O)n1`, the melting point is 116 to 118 °C.

Molecule `COc1cc(C=C(Br)Br)cc(OC)c1OCc1ccccc1` had a melting point of 76 to 77 °C.

Consider `c1cn(CC2CCCCC2)cn1`, for which the melting point is 25 to 30 °C.

On to `O=C(c1cccnc1)c1cccc([N+](=O)[O-])c1`, for which the melting point was 73 to 76 °C.

The molecule `CCCCCCCCCCC1(CCCCCCCCCC)c2cc(Br)ccc2-c2ccc(C=O)cc21` came in with a melting point of 45 to 47 °C.

Molecule `COC(=O)c1c(/C=C/c2ccccc2)ccc2ccccc12` returned a melting point of 68 to 71 °C.

Consider `C[Si](C)(C)/C=C/c1c(N)nc(C2CC2)nc1C(=O)O`, for which the melting point is 146 to 149 °C.

In turn, `CC(C)C(NC(=O)c1ccc(Cl)cc1)NC(=NC#N)Nc1cccnc1` (stereo not drawn) had a melting point of 182 to 184 °C.

`CCOC(=O)N1N=C(c2ccc([N+](=O)[O-])cc2)c2cc(Cl)c(Cl)cc2CC1C` (stereo not drawn): the melting point fell in the range of 106 to 108 °C.

For the molecule `O=C(NCc1ccccc1)NCC(C(=O)O)C(F)(F)F` (stereo not drawn), the melting point lay within 183 to 184 °C.

For the molecule `CC(C)(C)c1ccc(O)cc1Cl`, the melting point is 65 to 67 °C.

`O=C(Oc1ccc(Oc2ccc(C(F)(F)F)cn2)cc1)N1CCS(=O)CC1`: the melting point is 156 to 157 °C.

Molecule `CCOCN(c1ccccc1CN1CCC(c2ccccc2)OC1=O)S(=O)(=O)C(F)(F)F` (stereo not drawn) had a melting point of 116 °C.

For `CS(=O)(=O)CS(=O)(=O)OCCCl`, the melting point is 60 to 62 °C.

For the molecule `Cc1nc2c(O)c(CCC(=O)c3ccccc3F)c(C(=O)N(C)C)cc2n1C`, the melting point lay within 218 to 221 °C.

`CC1(C)OC(=C(C#N)C#N)C(C#N)=C1c1ccc(C2CCCCCN2)s1` (stereo not drawn) came in with a melting point of 264 °C.

The molecule `CCn1c(=O)c(C(N)=O)c(N)c2ccc(C)nc21` yielded a melting point of 263 to 266 °C.

In the case of `O=C(O)c1ccc(NC(=O)c2ccc3c(c2)OCCO3)cc1`, the melting point is 278 to 280 °C.

Take `Cc1cc(C)c(S(=O)(=O)NCCCCNS(=O)(=O)c2c(C)cc(C)cc2C)c(C)c1`: the melting point lay within 156 to 158 °C.

In the case of `COc1cc(OC)nc(NC(=O)Oc2ccccc2)n1`, the melting point fell in the range of 118 to 119 °C.

On to `COc1c(C)cnc(CS(=O)c2nc3ccccc3n2CCl)c1C` (stereo not drawn), for which the melting point was 140 to 141 °C.

Molecule `COC(=O)[C@H](Cc1cc(Cl)c(OCc2cccc3cc(-c4ccccc4)oc23)c(Cl)c1)NC(=O)C(F)(F)F` displayed a melting point of 141 to 145 °C.

As to `CC(C)CCN1C(=O)C(NC(=O)Oc2cccc(N(C)C)c2)C(=O)N(c2ccccc2)c2ccc(Cl)cc21` (stereo not drawn), the melting point lay within 199 to 200 °C.

Take `O=C1c2nccnc2C(=O)N1c1ccc(Cl)cn1`: the melting point turned out to be 165 °C.

`CCOC(=O)COc1cc2c(c(Cl)c1Cl)C(=O)C(C)(C(C)C)C2Br` (stereo not drawn) yielded a melting point of 83 to 85 °C.

For `CCC(=O)N1N=C(c2ccc(N)c(C)c2)c2cc3c(cc2C[C@@H]1C)OCO3`, the melting point was 176 to 178 °C.

`COc1cc(OC)c([C@@H]2CCCC[C@H]2O)c(O)c1C(C)=O` (relative stereo) registered a melting point of 162 to 164 °C.

On to `O=C1OCC2(CC2)N1c1nc(-c2ccc(Br)cc2)cs1`, for which the melting point lay within 201 to 202 °C.

With `CCOc1ccc2nc(CN3CCN(c4ccc(Cl)cc4Cl)CC3)cn2c1`, the melting point lay within 171 to 172 °C.

`O=C(CCl)N1CC(c2ccccc2)c2ccccc21` (stereo not drawn) had a melting point of 76 to 78 °C.

`Cc1nc(CCCCCn2cnc3c2c(=O)n(C)c(=O)n3C)no1`: the melting point was 160 to 162 °C.

`N#Cc1c(OC(F)(F)Br)ncnc1N1CCc2ccccc2CC1` displayed a melting point of 95 to 100 °C.

In the case of `NC(=O)c1nc(-c2cccc(O)c2)nc2c1[nH]c(=O)n2-c1ccccc1-c1ccccc1`, the melting point was 293 to 296 °C.

`COC(=O)c1ccccc1S(=O)(=O)Nn1cnn(-c2nc(OC)cc(OC)n2)c1=O` had a melting point of 192 °C.

`N#Cc1ccc(-c2ccc(-c3ccc(Br)o3)o2)nc1` came in with a melting point of 143 to 145 °C.

Regarding `Cc1ccc(O)c(NCCCN2CCN(C(c3ccccc3)c3ccccc3)CC2)c1`, the melting point was in the range of 178 to 179 °C.

As for `C[C@H]1Oc2ccc(F)cc2N(C)C(=O)[C@H]1NC(=O)OC(C)(C)C`, the melting point was in the range of 129 to 133 °C.

`Cc1ccc(CC(C(=O)c2ccccc2)N2CCCCC2)cc1` (stereo not drawn): the melting point fell in the range of 71 to 72 °C.

In turn, `CCCC(=O)C(=C1NCCCS1)[N+](=O)[O-]` returned a melting point of 54 to 58.5 °C.

As for `COc1cccc(OC)c1C(=O)NCC(=O)N1c2ccccc2N(Cc2ccccc2)C(=O)[C@H]2CCC[C@H]21` (relative stereo), the melting point is 182 to 184 °C.

As to `CCOC(=O)Cn1c2c(c3cc(Cl)cc(Cl)c31)CCN(C(=O)OC(C)(C)C)CC2`, the melting point was 117 to 120 °C.

`C(=C(c1ccccc1)c1ccccc1)C1CCN(CCCCCCCCc2cccnc2)CC1`: the melting point was in the range of 54 to 55 °C.

Turning to `CCOC(=O)CC1COc2c(OC)ccc(C(=O)Nc3ccccc3)c21` (stereo not drawn), the melting point lay within 93 to 95 °C.

`CCN(Cc1ccccc1OCc1ccccc1)c1ccc(C(=O)O)c(F)c1` showed a melting point of 154 °C.

`CCOC(=O)c1cc2cccc(NC(=O)c3cc(OCc4ccccc4F)cc(OCc4ccccc4F)c3)c2[nH]1` registered a melting point of 157 to 158 °C.

`CCc1noc(-c2cc3c(cn2)[nH]c2cccc(Oc4ncccn4)c23)n1`: the melting point was in the range of 254 to 256 °C.

As for `COC(=O)C(Cc1ccccc1)Oc1ccc(-c2ccc(-c3c(Cc4ccccc4)oc4ccccc34)cc2)cc1` (stereo not drawn), the melting point lay in the range of 67 to 69 °C.

As for `O=C(NCC1(O)CCCCCC1)c1cc(-c2ncc(Cl)cc2C(=O)O)ccc1Cl`, the melting point was 201 to 204 °C.

For the molecule `COC(=O)c1ccc(OCCCCCCc2ccc3cc(OCc4ccccc4)c(OCc4ccccc4)cc3c2)cc1`, the melting point is 121 to 125 °C.

Molecule `CCCCCCCCCC(C)NC(=O)C=C(C)c1cccc(NC(=O)CCCC(=O)O)c1` (stereo not drawn) came in with a melting point of 115 to 118 °C.

With `O=C1Cc2ccccc2C(c2ccccc2Cl)N1` (stereo not drawn), the melting point fell in the range of 180 to 182 °C.

Consider `C=C(C)C(=O)NC(=O)NCc1ccccc1`, for which the melting point fell in the range of 96 to 98 °C.

As for `CCOC(=O)N1CCN(c2nn(-c3ccc(F)cc3)c3ccccc23)CC1`, the melting point was in the range of 109 to 111 °C.

The molecule `COc1nc2ccc(Br)cc2cc1C(c1ccccc1)n1cccn1` (stereo not drawn) returned a melting point of 142 to 144 °C.

`CCCC1=C(C#N)C(c2cccc3c2OCCC3)c2c[nH]nc2N1` (stereo not drawn) registered a melting point of 230 °C.

The molecule `O=C1Oc2ccc(Br)cc2C1c1ccc(Cl)cc1Cl` (stereo not drawn) came in with a melting point of 149 to 150 °C.

Molecule `COc1ccc2c(c1O)C13CCNC(C2)C1CC(C)C(=O)C3` (stereo not drawn) showed a melting point of 163 to 165 °C.

The molecule `Cc1ccc(-c2ccc(C(=O)Nc3cc4ncc(CN5CCCC5)cc4cc3F)c(F)c2)cc1` yielded a melting point of 179 to 181 °C.

`C#CCOc1ccc(C)nc1` displayed a melting point of 32 to 34 °C.

Molecule `CN1CCN(c2ccccc2C=C2SCCN(c3ccc(Cl)c(Cl)c3)C2=O)CC1` registered a melting point of 155 to 157 °C.

In the case of `Cc1c(O)ccc(C(=O)c2ccccc2F)c1C`, the melting point lay within 131 to 132 °C.

As for `O=C(O)COc1ccc(-c2nc3cnccc3[nH]2)c(O)c1`, the melting point was 235 °C.

With `NC(=O)NN(C(=O)c1ccccc1)c1ccccn1`, the melting point is 206 °C.
